Converted amounts (≈) assume the structure as drawn.
What was measured:
Type in all cases: functional
[1] = tested on: Enterobacter cloacae; test: Antimicrobial activity against AmpC beta-lactamase-producing Enterobacter cloacae clinical isolate after 18 to 22 hrs by broth microdilution method
[2] = tested on: Citrobacter freundii; test: Antimicrobial activity against Citrobacter freundii clinical isolate after 18 to 22 hrs by broth microdilution method
[3] = tested on: Staphylococcus epidermidis; test: Antimicrobial activity against methicillin-susceptible Staphylococcus epidermidis clinical isolate after 18 to 22 hrs by broth microdilution method
[4] = tested on: Streptococcus pneumoniae; test: Antimicrobial activity against penicillin-intermediate Streptococcus pneumoniae clinical isolate after 18 to 22 hrs by broth microdilution method
[5] = tested on: Streptococcus pneumoniae; test: Antimicrobial activity against penicillin-resistant Streptococcus pneumoniae clinical isolate after 18 to 22 hrs by broth microdilution method
[6] = tested on: Haemophilus influenzae; test: Antimicrobial activity against beta-lactamase-negative Haemophilus influenzae clinical isolate after 18 to 22 hrs by broth microdilution method
[7] = tested on: Enterococcus durans; test: Antimicrobial activity against Enterococcus durans clinical isolate after 18 to 22 hrs by broth microdilution method
[8] = tested on: Citrobacter freundii; test: Antimicrobial activity against AmpC beta-lactamase-producing Citrobacter freundii clinical isolate after 18 to 22 hrs by broth microdilution method
[9] = tested on: Enterococcus casseliflavus; test: Antimicrobial activity against Enterococcus casseliflavus clinical isolate after 18 to 22 hrs by broth microdilution method
[10] = tested on: Staphylococcus haemolyticus; test: Antimicrobial activity against Staphylococcus haemolyticus clinical isolate after 18 to 22 hrs by broth microdilution method
[11] = tested on: Enterococcus hirae; test: Antimicrobial activity against Enterococcus hirae clinical isolate after 18 to 22 hrs by broth microdilution method
[12] = tested on: Enterococcus gallinarum; test: Antimicrobial activity against Enterococcus gallinarum clinical isolate after 18 to 22 hrs by broth microdilution method
[13] = tested on: Klebsiella pneumoniae; test: Antimicrobial activity against class A extended spectrum beta-lactamase- producing Klebsiella pneumoniae clinical isolate after 18 to 22 hrs by broth microdilution method
[14] = tested on: Klebsiella aerogenes; test: Antimicrobial activity against AmpC beta-lactamase-producing Enterobacter aerogenes clinical isolate after 18 to 22 hrs by broth microdilution method
[15] = tested on: Serratia marcescens; test: Antimicrobial activity against AmpC beta-lactamase-producing Serratia marcescens clinical isolate after 18 to 22 hrs by broth microdilution method
[16] = tested on: Escherichia coli; test: Antimicrobial activity against AmpC beta-lactamase-producing Escherichia coli clinical isolate after 18 to 22 hrs by broth microdilution method
[17] = tested on: Acinetobacter lwoffii; test: Antimicrobial activity against Acinetobacter lwoffii clinical isolate after 18 to 22 hrs by broth microdilution method
[18] = tested on: Proteus vulgaris; test: Antimicrobial activity against Proteus vulgaris clinical isolate after 18 to 22 hrs by broth microdilution method
[19] = tested on: Streptococcus pyogenes; test: Antimicrobial activity against Streptococcus pyogenes clinical isolate after 18 to 22 hrs by broth microdilution method
[20] = tested on: Citrobacter koseri; test: Antimicrobial activity against Citrobacter koseri clinical isolate after 18 to 22 hrs by broth microdilution method
[21] = tested on: Proteus mirabilis; test: Antimicrobial activity against Proteus mirabilis clinical isolate after 18 to 22 hrs by broth microdilution method
[22] = tested on: Escherichia coli; test: Antimicrobial activity against class A extended spectrum beta-lactamase- and class D OXA- producing Escherichia coli clinical isolate after 18 to 22 hrs by broth microdilution method
[23] = tested on: Escherichia coli; test: Antimicrobial activity against class A extended spectrum beta-lactamase- producing Escherichia coli clinical isolate after 18 to 22 hrs by broth microdilution method
[24] = tested on: Stenotrophomonas maltophilia; test: Antimicrobial activity against Stenotrophomonas maltophilia clinical isolate after 18 to 22 hrs by broth microdilution method
[25] = tested on: Haemophilus parainfluenzae; test: Antimicrobial activity against Haemophilus parainfluenzae clinical isolate after 18 to 22 hrs by broth microdilution method
[26] = tested on: Acinetobacter johnsonii; test: Antimicrobial activity against Acinetobacter johnsonii clinical isolate after 18 to 22 hrs by broth microdilution method
[27] = tested on: Providencia stuartii; test: Antimicrobial activity against Providencia stuartii clinical isolate after 18 to 22 hrs by broth microdilution method
[28] = tested on: Acinetobacter baumannii; test: Antimicrobial activity against Acinetobacter baumannii clinical isolate after 18 to 22 hrs by broth microdilution method
[29] = tested on: Escherichia coli; test: Antimicrobial activity against Escherichia coli clinical isolate after 18 to 22 hrs by broth microdilution method
[30] = tested on: Acinetobacter calcoaceticus; test: Antimicrobial activity against Acinetobacter calcoaceticus clinical isolate after 18 to 22 hrs by broth microdilution method
[31] = tested on: Haemophilus influenzae; test: Antimicrobial activity against beta-lactamase-producing Haemophilus influenzae clinical isolate after 18 to 22 hrs by broth microdilution method
[32] = tested on: Klebsiella pneumoniae; test: Antimicrobial activity against AmpC- producing Klebsiella pneumoniae clinical isolate after 18 to 22 hrs by broth microdilution method
[33] = tested on: Staphylococcus aureus; test: Antimicrobial activity against methicillin-susceptible Staphylococcus aureus clinical isolate after 18 to 22 hrs by broth microdilution method
[34] = tested on: Klebsiella oxytoca; test: Antimicrobial activity against Klebsiella oxytoca clinical isolate after 18 to 22 hrs by broth microdilution method
[35] = tested on: Klebsiella pneumoniae; test: Antimicrobial activity against class A extended spectrum beta-lactamase- and class D OXA- producing Klebsiella pneumoniae clinical isolate after 18 to 22 hrs by broth microdilution method
[36] = tested on: Acinetobacter junii; test: Antimicrobial activity against Acinetobacter junii clinical isolate after 18 to 22 hrs by broth microdilution method
[37] = tested on: Burkholderia cepacia; test: Antimicrobial activity against Burkholderia cepacia clinical isolate after 18 to 22 hrs by broth microdilution method
[38] = tested on: Moraxella catarrhalis; test: Antimicrobial activity against Moraxella catarrhalis clinical isolate after 18 to 22 hrs by broth microdilution method
[39] = tested on: Enterobacter cloacae; test: Antimicrobial activity against Enterobacter cloacae clinical isolate after 18 to 22 hrs by broth microdilution method

## C[C@H]1COc2c(N3CCN(C)CC3)c(F)cc3c(=O)c(C(=O)O)cn1c23.C[C@H]1COc2c(N3CCN(C)CC3)c(F)cc3c(=O)c(C(=O)O)cn1c23.O [LEVOFLOXACIN]
[1]
  MIC50: 0.12 µg/mL
  MIC90: 8 µg/mL
[2]
  MIC50: 0.12 µg/mL
  MIC90: 2 µg/mL
[3]
  MIC50: 0.12 µg/mL
  MIC90: 0.25 µg/mL
[4]
  MIC50: 0.5 µg/mL
  MIC90: 1 µg/mL
[5]
  MIC50: 1 µg/mL
  MIC90: 1 µg/mL
[6]
  MIC: ≤ 0.015 µg/mL
  MIC50: ≤ 0.015 µg/mL
  MIC90: ≤ 0.015 µg/mL
[7]
  MIC50: 1 µg/mL
  MIC90: 8 µg/mL
[8]
  MIC50: 0.12 µg/mL
  MIC90: 8 µg/mL
[9]
  MIC50: 1 µg/mL
  MIC90: 8 µg/mL
[10]
  MIC50: 8 µg/mL
  MIC90: 16 µg/mL
[11]
  MIC50: 1 µg/mL
  MIC90: 8 µg/mL
[12]
  MIC50: 1 µg/mL
  MIC90: 8 µg/mL
[13]
  MIC50: 0.5 µg/mL
  MIC90: 8 µg/mL
[14]
  MIC50: 0.12 µg/mL
  MIC90: 8 µg/mL
[15]
  MIC50: 0.12 µg/mL
  MIC90: 8 µg/mL
[16]
  MIC50: 16 µg/mL
  MIC90: > 16 µg/mL
[17]
  MIC50: 0.12 µg/mL
  MIC90: 2 µg/mL
[18]
  MIC: 0.03 µg/mL
  MIC50: 0.03 µg/mL
  MIC90: 0.12 µg/mL
[19]
  MIC50: 0.5 µg/mL
  MIC90: 0.5 µg/mL
[20]
  MIC50: 0.03 µg/mL
  MIC90: 0.06 µg/mL
[21]
  MIC50: 0.5 µg/mL
  MIC90: 16 µg/mL
[22]
  MIC50: 16 µg/mL
  MIC90: > 16 µg/mL
[23]
  MIC50: 8 µg/mL
  MIC90: > 16 µg/mL
[24]
  MIC50: 1 µg/mL
  MIC90: 4 µg/mL
[25]
  MIC: ≤ 0.015 µg/mL
  MIC50: ≤ 0.015 µg/mL
  MIC90: 0.06 µg/mL
[26]
  MIC50: 0.12 µg/mL
  MIC90: 2 µg/mL
[27]
  MIC50: 1 µg/mL
  MIC90: 16 µg/mL
[28]
  MIC50: 8 µg/mL
  MIC90: 16 µg/mL
[29]
  MIC50: 0.03 µg/mL
  MIC90: 8 µg/mL
[30]
  MIC50: 8 µg/mL
  MIC90: 16 µg/mL
[31]
  MIC: ≤ 0.015 µg/mL
  MIC50: ≤ 0.015 µg/mL
  MIC90: ≤ 0.015 µg/mL
[32]
  MIC50: 2 µg/mL
  MIC90: > 16 µg/mL
[33]
  MIC50: 0.25 µg/mL
  MIC90: 0.5 µg/mL
[34]
  MIC50: 0.03 µg/mL
  MIC90: 0.25 µg/mL
[35]
  MIC50: 1 µg/mL
  MIC90: > 16 µg/mL
[36]
  MIC50: 0.12 µg/mL
  MIC90: 2 µg/mL
[37]
  MIC50: 2 µg/mL
  MIC90: 4 µg/mL
[38]
  MIC50: 0.03 µg/mL
  MIC90: 0.06 µg/mL
[39]
  MIC50: 0.06 µg/mL
  MIC90: > 16 µg/mL

## CCN1CCN(C(=O)N[C@@H](C(=O)N[C@@H]2C(=O)N3[C@@H]2SC(C)(C)[C@@H]3C(=O)O)c2ccccc2)C(=O)C1=O [PIPERACILLIN]
[1]
  MIC50: > 128 µg/mL
  MIC90: > 128 µg/mL
[2]
  MIC50: 4 µg/mL (≈ 7.73 µM)
  MIC90: > 128 µg/mL
[3]
  MIC50: 2 µg/mL (≈ 3.86 µM)
  MIC90: 8 µg/mL (≈ 15.5 µM)
[4]
  MIC50: 0.25 µg/mL (≈ 0.483 µM)
  MIC90: 1 µg/mL (≈ 1.93 µM)
[5]
  MIC50: 2 µg/mL (≈ 3.86 µM)
  MIC90: 4 µg/mL (≈ 7.73 µM)
[6]
  MIC50: 0.015 µg/mL (≈ 0.029 µM)
  MIC90: 0.03 µg/mL (≈ 0.058 µM)
[7]
  MIC50: 4 µg/mL (≈ 7.73 µM)
  MIC90: 16 µg/mL (≈ 30.9 µM)
[8]
  MIC50: > 128 µg/mL
  MIC90: > 128 µg/mL
[9]
  MIC50: 4 µg/mL (≈ 7.73 µM)
  MIC90: 16 µg/mL (≈ 30.9 µM)
[10]
  MIC50: > 128 µg/mL
  MIC90: > 128 µg/mL
[11]
  MIC50: 4 µg/mL (≈ 7.73 µM)
  MIC90: 16 µg/mL (≈ 30.9 µM)
[12]
  MIC50: 4 µg/mL (≈ 7.73 µM)
  MIC90: 16 µg/mL (≈ 30.9 µM)
[13]
  MIC: > 128 µg/mL
  MIC50: > 128 µg/mL
  MIC90: > 128 µg/mL
[14]
  MIC50: > 128 µg/mL
  MIC90: > 128 µg/mL
[15]
  MIC50: > 128 µg/mL
  MIC90: > 128 µg/mL
[16]
  MIC50: > 128 µg/mL
  MIC90: > 128 µg/mL
[17]
  MIC50: 4 µg/mL (≈ 7.73 µM)
  MIC90: 128 µg/mL (≈ 247 µM)
[18]
  MIC50: 64 µg/mL (≈ 124 µM)
  MIC90: > 128 µg/mL
[19]
  MIC50: 0.03 µg/mL (≈ 0.058 µM)
  MIC90: 0.06 µg/mL (≈ 0.116 µM)
[20]
  MIC50: 32 µg/mL (≈ 61.8 µM)
  MIC90: > 128 µg/mL
[21]
  MIC50: > 128 µg/mL
  MIC90: > 128 µg/mL
[22]
  MIC: > 128 µg/mL
  MIC50: > 128 µg/mL
  MIC90: > 128 µg/mL
[23]
  MIC: > 128 µg/mL
  MIC50: > 128 µg/mL
  MIC90: > 128 µg/mL
[24]
  MIC: > 128 µg/mL
  MIC50: > 128 µg/mL
  MIC90: > 128 µg/mL
[25]
  MIC50: 0.06 µg/mL (≈ 0.116 µM)
  MIC90: 0.5 µg/mL (≈ 0.966 µM)
[26]
  MIC50: 4 µg/mL (≈ 7.73 µM)
  MIC90: 128 µg/mL (≈ 247 µM)
[27]
  MIC50: 2 µg/mL (≈ 3.86 µM)
[28]
  MIC50: > 128 µg/mL
  MIC90: > 128 µg/mL
[29]
  MIC50: 2 µg/mL (≈ 3.86 µM)
  MIC90: > 128 µg/mL
[30]
  MIC50: > 128 µg/mL
  MIC90: > 128 µg/mL
[31]
  MIC50: 8 µg/mL (≈ 15.5 µM)
  MIC90: 32 µg/mL (≈ 61.8 µM)
[32]
  MIC50: > 128 µg/mL
  MIC90: > 128 µg/mL
[33]
  MIC50: 64 µg/mL (≈ 124 µM)
  MIC90: > 128 µg/mL
[34]
  MIC50: 8 µg/mL (≈ 15.5 µM)
  MIC90: 64 µg/mL (≈ 124 µM)
[35]
  MIC50: > 128 µg/mL
  MIC90: > 128 µg/mL
[36]
  MIC50: 4 µg/mL (≈ 7.73 µM)
  MIC90: 128 µg/mL (≈ 247 µM)
[37]
  MIC50: 32 µg/mL (≈ 61.8 µM)
  MIC90: 128 µg/mL (≈ 247 µM)
[38]
  MIC50: 0.25 µg/mL (≈ 0.483 µM)
  MIC90: 8 µg/mL (≈ 15.5 µM)
[39]
  MIC50: 4 µg/mL (≈ 7.73 µM)
  MIC90: > 128 µg/mL
